# Reference: article PMC10279920, “Single-molecule visualization of Pif1 helicase translocation on single-stranded DNA” (The Journal of Biological Chemistry, 2023)
# Substitutions are numbered along the chain they refer to.
# T1: GFP-Pif1 (Saccharomyces cerevisiae, UniProt P07271, K312A)
# T1 construct: N-terminal superfolder GFP fusion of nuclear isoform residues 40-859, pRSF-Duet-1, E. coli Rosetta2(DE3), Ni-NTA purified
# T1 sequence (P07271 40-859 K312A): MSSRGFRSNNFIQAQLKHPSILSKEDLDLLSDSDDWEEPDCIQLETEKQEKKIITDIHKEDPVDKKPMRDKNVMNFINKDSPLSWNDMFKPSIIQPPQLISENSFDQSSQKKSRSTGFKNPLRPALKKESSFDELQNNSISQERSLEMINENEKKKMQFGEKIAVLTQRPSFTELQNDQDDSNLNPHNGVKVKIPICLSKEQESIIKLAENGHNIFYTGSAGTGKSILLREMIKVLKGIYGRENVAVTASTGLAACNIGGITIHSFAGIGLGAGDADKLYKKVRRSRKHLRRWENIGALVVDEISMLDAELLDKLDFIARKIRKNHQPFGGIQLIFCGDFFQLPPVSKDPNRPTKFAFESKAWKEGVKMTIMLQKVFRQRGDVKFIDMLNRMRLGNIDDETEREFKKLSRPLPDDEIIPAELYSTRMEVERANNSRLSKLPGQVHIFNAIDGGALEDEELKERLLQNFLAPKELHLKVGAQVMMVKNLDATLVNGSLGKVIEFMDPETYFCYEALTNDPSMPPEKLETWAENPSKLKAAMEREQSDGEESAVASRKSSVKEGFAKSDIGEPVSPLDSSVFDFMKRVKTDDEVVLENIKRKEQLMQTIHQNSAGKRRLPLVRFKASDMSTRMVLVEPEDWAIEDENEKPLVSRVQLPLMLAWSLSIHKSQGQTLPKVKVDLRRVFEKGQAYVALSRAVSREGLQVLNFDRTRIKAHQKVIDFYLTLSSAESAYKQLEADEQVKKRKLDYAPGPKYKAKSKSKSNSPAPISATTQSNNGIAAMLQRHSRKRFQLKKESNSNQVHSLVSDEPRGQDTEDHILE
# T2: GFP-Pif1 (Saccharomyces cerevisiae, UniProt P07271, H303A)
# T2 construct: N-terminal superfolder GFP fusion of nuclear isoform residues 40-859, pRSF-Duet-1, E. coli Rosetta2(DE3), Ni-NTA purified
# T2 sequence (P07271 40-859 H303A): T1 sequence (P07271 40-859 K312A) with H264A, A273K
# T3: GFP-Pif1 K312A (Saccharomyces cerevisiae, UniProt P07271 40-859, K312A)
# T3 sequence: T1 sequence (P07271 40-859 K312A)
# T4: GFP-Pif1 E724A (Saccharomyces cerevisiae, UniProt P07271 40-859, E724A)
# T4 sequence: T1 sequence (P07271 40-859 K312A) with A273K, E685A
# Columns and labels:
# GFP-Pif1 [1] = target: T1, GFP-Pif1; assay: ATP hydrolysis, [γ-32P]-ATP TLC, Michaelis-Menten fit; assay type: biochemical; conditions: M13 ssDNA 1.5 μM nt, 10 nM Pif1, 5 mM MgCl2, 60 mM KCl, pH 7.5, 30 °C, no RPA; labelled compound as tracer
# Experimental: (§1) ATP hydrolysis, [γ-32P]-ATP TLC, Michaelis-Menten fit on GFP-Pif1 | each of the mutant proteins was tested for ATPase activity
# GFP-Pif1 [2] = target: T2, GFP-Pif1; assay: as above; assay type: biochemical; conditions: M13 ssDNA 1.5 μM nt, 10 nM Pif1, 5 mM MgCl2, 60 mM KCl, pH 7.5, 30 °C, no RPA; labelled compound as tracer
# Experimental: as §1
# GFP-Pif1 K312A = target: T3, GFP-Pif1 K312A; assay: EMSA; no ATP, 5 mM Mg2+; 35 mM Tris-HCl pH 7.5, 1 mM DTT, 5 mM MgCl2, 60 mM KCl, 0.1 mg/ml BSA, no ATP, 30 min at 30 C; 5 nM ssDNA; conditions: protein: recombinant; tags: N-terminal superfolder GFP; Ni-NTA purified; label: 5' Alexa647
# GFP-Pif1 E724A = target: T4, GFP-Pif1 E724A; assay: as above; conditions: protein: recombinant; tags: N-terminal superfolder GFP; Ni-NTA purified; label: 5' Alexa647
Km (GFP-Pif1 [1]) [µM],Km (GFP-Pif1 [2]) [µM],Molecule,Kd (GFP-Pif1 K312A) [nM],Kd (GFP-Pif1 E724A) [nM]
380 ± 310,870 ± 1320,Nc1ncnc2c1ncn2[C@@H]1O[C@H](COP(=O)(O)OP(=O)(O)OP(=O)(O)O)[C@@H](O)[C@H]1O [ATP],,
,,GCTAGCAGTAGCCAGCATCGAACGTACGATCGGTAACGTA (ssDNA) [40-nt ssDNA],40,19
